# Data from ChEMBL document CHEMBL1201862, “PubChem BioAssay data set” (2004).
# Active and inactive are the calls of the source. Rule as the data show it, for most assays here: actives have a measured EC50 and inactives only a lower limit.
# Experiments:
# [1] = target: T1, RNA-binding protein pos-1 (Caenorhabditis elegans, UniProt G5EF15); assay: disruptors of C. elegans POS-1 RNA interaction – biochemical, fluorescence polarization, dose response (AID 1964);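 also: purified POS-1 fused to maltose binding protein made in E. coli; potency of compounds blocking POS-1 binding to fluorescent RNA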
# T1 sequence (G5EF15 whole entry): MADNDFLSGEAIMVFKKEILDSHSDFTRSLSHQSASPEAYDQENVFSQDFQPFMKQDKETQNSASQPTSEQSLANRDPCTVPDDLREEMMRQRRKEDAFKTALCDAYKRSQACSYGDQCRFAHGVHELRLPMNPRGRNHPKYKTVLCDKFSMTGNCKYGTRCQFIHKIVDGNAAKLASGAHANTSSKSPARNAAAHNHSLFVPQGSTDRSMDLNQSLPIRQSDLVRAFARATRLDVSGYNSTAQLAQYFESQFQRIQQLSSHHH
# [2] = target: T2, Zinc finger protein mex-5 (Caenorhabditis elegans, UniProt Q9XUB2); assay: potency of MEX-5 RNA-binding blockers – biochemical, C. elegans, fluorescence polarization, dose response (AID 1960)
# T2 sequence (Q9XUB2 whole entry): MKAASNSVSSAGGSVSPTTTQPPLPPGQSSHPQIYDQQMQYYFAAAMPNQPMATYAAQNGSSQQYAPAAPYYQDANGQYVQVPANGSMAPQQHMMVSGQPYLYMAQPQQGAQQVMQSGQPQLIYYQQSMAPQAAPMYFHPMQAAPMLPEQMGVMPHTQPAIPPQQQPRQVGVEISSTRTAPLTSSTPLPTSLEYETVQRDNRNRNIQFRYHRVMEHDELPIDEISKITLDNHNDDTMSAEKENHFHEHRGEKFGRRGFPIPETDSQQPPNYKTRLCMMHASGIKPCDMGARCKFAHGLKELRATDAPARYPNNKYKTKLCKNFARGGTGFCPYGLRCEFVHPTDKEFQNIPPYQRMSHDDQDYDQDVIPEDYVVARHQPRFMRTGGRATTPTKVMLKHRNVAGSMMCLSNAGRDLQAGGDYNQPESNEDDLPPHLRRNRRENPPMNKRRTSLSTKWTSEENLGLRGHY
# [3] = Luminescence Cell-Based Dose Confirmation HTS to Identify Inhibitors of Platelet Dense Granule Release. [Related pubchem assays: 1663 (Primary HTS), 1678 (Summary of Project)]; assay type: functional
# [4] = target: Luciferin 4-monooxygenase (Photinus pyralis, UniProt P08659); assay: inhibition of purified Photinus pyralis luciferase – biochemical, luminescence, dose response (AID 1891)
# [5] = target: T3, Streptokinase A (Streptococcus pyogenes serotype M1, UniProt P10520); assay: viability-normalized secreted streptokinase activity reduction – plasminogen activation absorbance, OD405, dose response (AID 1914); assay type: functional, Streptococcus pyogenes M1 GAS;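 also: secreted streptokinase activity via plasminogen activation per viability signal from cell pellet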
# T3 sequence (P10520 whole entry): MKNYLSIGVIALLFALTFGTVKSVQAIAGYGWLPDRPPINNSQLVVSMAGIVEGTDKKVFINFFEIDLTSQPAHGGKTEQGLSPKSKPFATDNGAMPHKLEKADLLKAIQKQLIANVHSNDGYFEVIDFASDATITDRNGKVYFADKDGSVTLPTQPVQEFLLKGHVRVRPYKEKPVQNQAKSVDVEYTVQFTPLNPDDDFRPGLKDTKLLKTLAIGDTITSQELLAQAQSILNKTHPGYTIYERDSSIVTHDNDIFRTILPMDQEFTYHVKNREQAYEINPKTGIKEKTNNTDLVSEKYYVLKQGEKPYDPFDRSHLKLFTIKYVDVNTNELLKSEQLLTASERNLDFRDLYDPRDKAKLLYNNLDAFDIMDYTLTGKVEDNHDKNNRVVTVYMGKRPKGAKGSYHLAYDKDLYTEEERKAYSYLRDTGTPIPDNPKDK
# [6] = tested on: Streptococcus; assay: GAS UMAA2166 growth inhibition – luminescence, BacTiterGlo, counter-screen for streptokinase expression inhibitor project, dose response (AID 1915); assay type: functional, organism-based;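 also: potency for reduction of bacterial viability or growth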
# [7] = tested on: Streptococcus sp. 'group A'; assay: Streptococcus pyogenes SK(-)GAS viability under kanamycin – luminescence, BacTiterGlo, confirmation, counter-screen for streptokinase expression inhibitor project, dose response (AID 1900); assay type: functional, organism-based
# [8] = target: T4, Protein RecA (Mycobacterium tuberculosis, UniProt P9WHJ3); assay: Fluorescence Cell-Free Homogeneous Dose Retest to Identify Inhibitors of RecA-Intein Splicing Activity. [Related pubchem assays (depositor defined):AID2097, AID2223, AID489010, AID492950]; assay type: functional
# T4 sequence (P9WHJ3 whole entry): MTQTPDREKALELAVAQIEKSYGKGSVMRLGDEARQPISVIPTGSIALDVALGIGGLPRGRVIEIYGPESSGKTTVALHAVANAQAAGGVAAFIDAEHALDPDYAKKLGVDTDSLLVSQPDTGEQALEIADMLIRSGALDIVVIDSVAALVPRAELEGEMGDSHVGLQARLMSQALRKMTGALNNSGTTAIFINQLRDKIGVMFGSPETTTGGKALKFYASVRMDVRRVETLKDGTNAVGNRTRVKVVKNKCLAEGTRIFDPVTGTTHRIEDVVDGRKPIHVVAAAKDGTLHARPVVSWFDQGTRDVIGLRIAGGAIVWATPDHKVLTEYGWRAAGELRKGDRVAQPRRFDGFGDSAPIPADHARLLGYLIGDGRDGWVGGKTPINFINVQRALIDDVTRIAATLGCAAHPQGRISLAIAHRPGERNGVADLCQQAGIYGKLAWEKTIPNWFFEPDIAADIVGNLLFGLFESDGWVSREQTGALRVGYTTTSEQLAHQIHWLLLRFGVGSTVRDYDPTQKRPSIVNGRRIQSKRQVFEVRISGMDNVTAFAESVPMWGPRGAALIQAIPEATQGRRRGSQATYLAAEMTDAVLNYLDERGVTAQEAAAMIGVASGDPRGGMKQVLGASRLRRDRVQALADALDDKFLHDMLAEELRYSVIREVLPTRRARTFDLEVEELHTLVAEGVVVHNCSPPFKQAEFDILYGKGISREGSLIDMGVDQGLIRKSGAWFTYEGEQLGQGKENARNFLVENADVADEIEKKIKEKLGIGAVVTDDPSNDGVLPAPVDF
# [9] = target: T5, Replicative DNA helicase DnaB (Mycobacterium tuberculosis, UniProt P9WMR3); assay: DnaB intein splicing inhibitors, dose response, biochemical, cell-free fluorescence (AID 449749); assay type: functional
# T5 sequence (P9WMR3 whole entry): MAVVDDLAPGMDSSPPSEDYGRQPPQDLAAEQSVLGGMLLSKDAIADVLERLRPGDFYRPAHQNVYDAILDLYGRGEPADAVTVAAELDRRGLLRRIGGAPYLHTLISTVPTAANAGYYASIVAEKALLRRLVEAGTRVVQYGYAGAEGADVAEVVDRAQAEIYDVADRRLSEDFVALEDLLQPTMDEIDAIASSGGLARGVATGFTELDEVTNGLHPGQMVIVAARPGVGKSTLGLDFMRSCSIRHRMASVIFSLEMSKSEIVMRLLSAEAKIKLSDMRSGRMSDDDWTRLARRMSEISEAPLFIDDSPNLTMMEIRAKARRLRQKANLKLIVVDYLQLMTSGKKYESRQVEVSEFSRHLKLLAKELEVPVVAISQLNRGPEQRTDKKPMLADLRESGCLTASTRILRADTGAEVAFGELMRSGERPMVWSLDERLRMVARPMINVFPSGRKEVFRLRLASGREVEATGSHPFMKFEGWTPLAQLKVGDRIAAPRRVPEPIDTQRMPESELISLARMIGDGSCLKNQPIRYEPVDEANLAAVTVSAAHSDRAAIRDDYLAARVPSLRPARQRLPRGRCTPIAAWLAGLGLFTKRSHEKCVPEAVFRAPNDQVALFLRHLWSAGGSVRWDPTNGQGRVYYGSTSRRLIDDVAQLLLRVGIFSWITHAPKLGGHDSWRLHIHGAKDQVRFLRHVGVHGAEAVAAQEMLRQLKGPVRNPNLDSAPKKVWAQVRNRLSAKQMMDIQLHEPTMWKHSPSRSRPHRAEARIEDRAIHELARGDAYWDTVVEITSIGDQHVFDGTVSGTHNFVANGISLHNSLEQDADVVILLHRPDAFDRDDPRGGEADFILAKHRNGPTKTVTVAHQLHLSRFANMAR
# [10] = target: Cytochrome P450 3A4 (Homo sapiens, UniProt P08684);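 also: CYP3A4 tested as one member of a cytochrome P450 panel screen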
# [11] = Luminescence Cell-Based Dose Retest to Confirm Inhibitors of Cancer Stem Cells. [Related pubchem assays (depositor defined):AID2717, AID2721]; assay type: functional; conditions: Homo sapiens
# Luciferin 4-monooxygenase, sequence (P08659 whole entry): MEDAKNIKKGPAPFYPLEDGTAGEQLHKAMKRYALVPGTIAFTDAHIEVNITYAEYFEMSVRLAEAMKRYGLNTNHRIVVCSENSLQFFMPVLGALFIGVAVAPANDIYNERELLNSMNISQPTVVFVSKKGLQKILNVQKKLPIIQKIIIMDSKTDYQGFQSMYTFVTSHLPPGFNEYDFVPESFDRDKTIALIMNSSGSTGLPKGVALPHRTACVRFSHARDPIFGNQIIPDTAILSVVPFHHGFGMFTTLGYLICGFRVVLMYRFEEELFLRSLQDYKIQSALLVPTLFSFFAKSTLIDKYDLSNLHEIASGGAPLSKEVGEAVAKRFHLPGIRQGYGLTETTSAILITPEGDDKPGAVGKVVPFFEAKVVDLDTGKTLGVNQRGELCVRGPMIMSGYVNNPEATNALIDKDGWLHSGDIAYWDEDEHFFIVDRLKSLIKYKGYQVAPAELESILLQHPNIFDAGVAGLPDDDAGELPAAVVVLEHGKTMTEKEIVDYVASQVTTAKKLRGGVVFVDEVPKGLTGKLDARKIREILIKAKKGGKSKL
# Cytochrome P450 3A4, sequence (P08684 whole entry): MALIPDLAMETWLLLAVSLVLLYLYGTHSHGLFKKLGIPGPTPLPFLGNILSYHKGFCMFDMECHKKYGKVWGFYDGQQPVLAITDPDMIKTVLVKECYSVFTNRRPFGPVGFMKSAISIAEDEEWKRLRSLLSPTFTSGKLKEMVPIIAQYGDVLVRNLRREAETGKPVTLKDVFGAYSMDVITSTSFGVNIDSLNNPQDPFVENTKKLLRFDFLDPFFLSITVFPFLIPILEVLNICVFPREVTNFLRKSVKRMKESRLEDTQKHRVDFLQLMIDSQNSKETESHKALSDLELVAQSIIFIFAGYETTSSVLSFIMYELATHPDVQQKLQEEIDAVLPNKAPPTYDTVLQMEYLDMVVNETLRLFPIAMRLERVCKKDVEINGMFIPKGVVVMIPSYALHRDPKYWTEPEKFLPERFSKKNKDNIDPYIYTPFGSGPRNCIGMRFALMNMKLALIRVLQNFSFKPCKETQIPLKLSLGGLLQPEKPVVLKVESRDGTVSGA
structure (smiles),measurement,setting,value
CC1(C)CC(=O)C2=C(C1)OC(N)=C(C#N)[C@@H]2c1ccccc1[N+](=O)[O-],EC50,[1],22.3 µM (inconclusive)
same,EC50,[2],23.9 µM (active)
CC1CCCCN1Cc1nc2c(c(=O)n(C)c(=O)n2C)n1CCCc1ccccc1 (stereo not drawn),EC50,[3],> 112 µM (not active)
same,EC50,[4],> 112 µM (not active)
Cc1ccc(C2CC(c3ccccc3OC(F)F)Nc3ncnn32)cc1 (stereo not drawn),EC50,[3],> 112 µM (not active)
same,EC50,[4],> 112 µM (not active)
Cc1cccc(CCNC(=O)c2cc(S(=O)(=O)N3CCOCC3)cn2C)c1,EC50,[3],> 112 µM (not active)
same,EC50,[4],> 112 µM (not active)
CCOc1ccc(NC(=O)CN(C)C(=O)C2CC(=O)N(c3ccc4c(c3)OCCO4)C2)cc1OCC (stereo not drawn),EC50,[5],> 150 µM (not active)
same,EC50,[6],> 150 µM (not active)
same,EC50,[7],> 150 µM (not active)
Cc1cccc(-n2cnc3c(sc4nc(N5CCOCC5)c5c(c43)CCCC5)c2=O)c1,EC50,[3],50 µM (active)
same,EC50,[4],> 112 µM (not active)
N#Cc1c(C#N)c(-c2ccccc2)n(-c2ccc(C(=O)O)cc2)c1N,EC50,[1],> 300 µM (not active)
same,EC50,[2],> 300 µM (not active)
CCOC(=O)Nc1ccc2c(COC(=O)CNS(=O)(=O)c3cccc(Br)c3)cc(=O)oc2c1,EC50,[3],> 112 µM (not active)
same,EC50,[4],> 112 µM (not active)
Oc1nc2ccc(Cl)cc2c(-c2ccccc2)c1SC(=S)N1CCCCC1,EC50,[8],> 380 µM (inactive)
same,AC50,[9],> 380 µM (inactive)
CCc1ccccc1N1C(=O)NC(=O)/C(=C\c2cc(C)n(C)c2C)C1=O,EC50,[1],> 300 µM (not active)
same,EC50,[2],> 300 µM (inconclusive)
Cc1c(NCc2cc(Cl)cc(Cl)c2O)c(=O)n(-c2ccccc2)n1C,EC50,[5],21.1 µM (active)
same,EC50,[6],> 150 µM (not active)
same,EC50,[7],4.76 µM (active)
COc1ccc(C(=O)NC(=S)NC(C)(C)C)cc1Br,AC50,[10],14.1 µM (inconclusive)
same,EC50,[3],> 112 µM (not active)
same,EC50,[4],> 112 µM (not active)
CCCc1cc(C(=O)NC2CCCC2)no1,EC50,[3],> 112 µM (not active)
same,EC50,[4],> 112 µM (not active)
Cc1cc(/C=C2/C(=O)NC(=O)N(c3ccc(Br)cc3)C2=O)c(C)n1C,EC50,[1],52.2 µM (active)
same,EC50,[2],53 µM (active)
N#CC1=C(N)C(C#N)(C#N)[C@H](c2ccsc2)[C@H]2COCC=C12,EC50,[1],> 300 µM (not active)
same,EC50,[2],> 300 µM (not active)
O=C(O)c1ccccc1-n1c(-c2ccccc2)cc2c1CCCC2=O,EC50,[1],> 300 µM (not active)
same,EC50,[2],> 300 µM (not active)
CCCc1c(C(=O)NNc2cccc(Cl)c2)cnn1-c1ccccc1,EC50,[8],> 380 µM (inactive)
same,AC50,[9],10.7 µM (active)
O=C(CSC(=S)N1CCOCC1)c1cc(Br)cc(Br)c1O,EC50,[5],> 150 µM (not active)
same,EC50,[6],> 150 µM (not active)
same,EC50,[7],25 µM (active)
COc1ccc(/C=C2\N=C(C)OC2=O)cc1OC,EC50,[1],> 300 µM (not active)
same,EC50,[2],> 300 µM (not active)
O=C(Cc1ccc(Br)cc1)Nc1nc2ccccc2[nH]1,EC50,[5],> 150 µM (not active)
same,EC50,[6],> 150 µM (not active)
same,EC50,[7],> 150 µM (not active)
Cc1ccccc1C1CC(c2ccccc2OC(F)F)Nc2ncnn21 (stereo not drawn),EC50,[3],> 112 µM (not active)
same,EC50,[4],> 112 µM (not active)
Cc1cccc(-n2ncc3c2CCCC3NC(=O)CCN2Cc3ccccc3C2=O)c1C (stereo not drawn),EC50,[5],> 150 µM (not active)
same,EC50,[6],> 150 µM (not active)
same,EC50,[7],> 150 µM (not active)
CCCc1cc(C(=O)Nc2ccc(C(=O)c3ccc(F)cc3)cc2)n(C)n1,EC50,[5],46.9 µM (active)
same,EC50,[6],> 150 µM (not active)
same,EC50,[7],19.7 µM (active)
Cc1ccccc1CCNC(=O)C1CCN(S(=O)(=O)c2ccc(-n3cnnn3)cc2)CC1,EC50,[3],> 112 µM (not active)
same,EC50,[4],> 112 µM (not active)
COC(=O)c1c(NC(=O)/C=C/C(=O)O)sc(Cc2ccccc2)c1C,EC50,[8],7.93 µM (active)
same,AC50,[9],3.23 µM (active)
COc1cc(C(c2c(C)n[nH]c2O)c2c(C)n[nH]c2O)cc(OC)c1OC,EC50,[8],0.262 µM (active)
same,AC50,[9],0.313 µM (active)
Cc1ccc(S(=O)(=O)NCCC(=O)OCC(=O)NC(=O)c2cccn2C)cc1,EC50,[3],> 112 µM (not active)
same,EC50,[4],> 112 µM (not active)
Nc1cccc2c(O)cccc12,EC50,[8],15.5 µM (active)
same,AC50,[9],22.1 µM (active)
CC(C)=CCC/C(C)=C/Cc1c(O)ccc(C(=O)/C=C/c2ccc(O)cc2)c1O [XANTHOANGELOL],EC50,[6],1.68 µM (active)
same,EC50,[8],88.4 µM (active)
same,AC50,[11],9.49 µM (active)
same,AC50,[9],3.19 µM (active)
same,EC50,[7],1.05 µM (active)
